Data from article PMC2199305 (Environmental Health Perspectives, 2007).
Where two headings read alike, the source gives them in different places.

Key:
[1] = biological target: T1, GST-ER-α –LBD (Homo sapiens, UniProt P03372); assay: Competitive binding assay using [3H]E2; details: for binding to ER-α (in words): [3H]E2 tracer; for ERR-γ receptor selectivity ER-α (IC50, nM)/ERR-γ (IC50, nM): ratio of IC50 values, ER-α over ERR-γ; for IC50: read-out: Binding affinity for ER-α (IC50)
T1 sequence (P03372 311-547 limits assumed): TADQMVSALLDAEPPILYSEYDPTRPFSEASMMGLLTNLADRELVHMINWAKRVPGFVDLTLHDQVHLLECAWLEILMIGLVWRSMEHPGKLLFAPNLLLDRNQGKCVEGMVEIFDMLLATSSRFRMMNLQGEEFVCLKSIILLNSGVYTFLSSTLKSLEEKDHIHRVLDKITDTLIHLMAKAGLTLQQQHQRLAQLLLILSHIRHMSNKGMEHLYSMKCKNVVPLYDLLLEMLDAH

[2] = biological target: T2, GST-ERR-γ –LBD (human ERR-γ) (Homo sapiens, UniProt P62508); assay: Competitive receptor binding assay using [3H]BPA as tracer; details: for fold weaker binding affinity for ERR-γ than bisphenol E: ratio of IC50 vs bisphenol E
T2 construct: made in house; host or cells: Escherichia coli BL21α (vector pGEX6P-1)
T2 sequence (P62508 233-457 limits assumed): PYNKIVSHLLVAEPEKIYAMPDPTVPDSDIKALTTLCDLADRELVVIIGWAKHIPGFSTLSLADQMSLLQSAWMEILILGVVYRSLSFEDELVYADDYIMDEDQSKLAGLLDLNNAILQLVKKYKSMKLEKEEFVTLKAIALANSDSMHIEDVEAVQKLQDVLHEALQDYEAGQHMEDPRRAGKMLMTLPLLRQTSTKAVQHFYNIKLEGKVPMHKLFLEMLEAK
Source text: ERR-γ –LBD was amplified from a human kidney cDNA library (Clontech Laboratories, Mountain View, CA, USA) by polymerase chain reaction (PCR) using gene-specific primers and cloned into pGEX6P-1 (Amersham Biosciences, Piscataway, NJ, USA). Glutathione S-transferase (GST)–fused receptor protein expressed in Escherichia coli BL21α was purified on an affinity column of glutathione-sepharose 4B (GE Healthcare BioSciences Co., Piscataway, NJ, USA) to obtain GST-ERR-γ –LBD.
The reaction mixtures were incubated for 2 hr at 4°C and free radioligand was removed with 1% DCC by filtration as described above. Radioactivity was determined on a liquid scintillation counter (TopCount NXT; PerkinElmer Life Sciences Tokyo, Japan). […] Each assay was performed in duplicate and repeated at least three times.

[3] = biological target: T3, human ERR-γ (Homo sapiens, UniProt P62508); details: HeLa cells; for inhibition of the inverse agonist (deactivation) activity of 4-OHT: added along with 1.0 μM 4-OHT; for effect on constitutive basal activity of ERR-γ: compound alone
T3 sequence (P62508 1-458): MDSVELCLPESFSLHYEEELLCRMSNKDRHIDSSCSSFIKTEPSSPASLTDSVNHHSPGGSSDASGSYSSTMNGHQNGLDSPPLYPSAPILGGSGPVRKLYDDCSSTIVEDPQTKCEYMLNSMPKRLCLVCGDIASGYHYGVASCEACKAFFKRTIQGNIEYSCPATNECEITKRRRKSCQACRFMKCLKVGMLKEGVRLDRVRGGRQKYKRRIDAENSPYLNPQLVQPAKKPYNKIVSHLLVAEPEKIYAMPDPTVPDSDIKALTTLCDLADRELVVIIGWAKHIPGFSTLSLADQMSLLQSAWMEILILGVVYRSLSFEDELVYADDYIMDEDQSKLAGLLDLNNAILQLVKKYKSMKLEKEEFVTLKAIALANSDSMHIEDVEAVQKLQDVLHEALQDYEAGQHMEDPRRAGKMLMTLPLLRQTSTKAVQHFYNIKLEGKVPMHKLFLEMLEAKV
Procedure: HeLa cells were maintained in Eagle’s MEM (EMEM; Nissui, Tokyo, Japan) in the presence of 10% (vol/vol) fetal bovine serum at 37°C. For luciferase assays, HeLa cells were seeded at 5 × 10^5 cells/6-cm dish for 24 hr and then transfected with 4 μg of reporter gene (pGL3/3 × ERRE) and 3 μg of ERR-γ expression plasmids (pcDNA3/ERR-γ ) by Lipofectamine Plus reagent (Invitrogen Japan, Tokyo, Japan) according to the manufacturer’s protocol. Approximately 24 hr after transfection, cells were harvested and plated into 96-well plates at 5 × 10^4 cells/well. The cells were then treated with varying doses of chemicals diluted with 1% bovine serum albumin/phosphate-buffered saline (BSA/PBS, vol/vol). […] After 24 hr, luciferase activity was measured with the appropriate reagent using a Luciferase Assay System (Promega, Madison, WI, USA) according to the manufacturer’s instructions. […] Cells treated with 1% BSA/PBS were used as a vehicle control. Each assay was performed in triplicate and repeated at least three times.

[4] = read-out: Binding affinity for ERR-γ (IC50)

Row | Structure (SMILES) | binding to ER-α (in words) [1] | ERR-γ receptor selectivity ER-α (IC50, nM)/ERR-γ (IC50, nM) [1] | IC50 [2, 4] [nM] | also measured
1 | Oc1ccc(Cc2ccc(O)cc2)cc1 [Bisphenol F, bis(4-hydroxyphenyl)methane] | almost completely inactive | Exclusively ERR-γ | 131 ± 17.9 | fold weaker binding affinity for ERR-γ than bisphenol E [2]: approximately 16 fold
2 | CC(C)c1ccc(O)cc1 [4-Isopropylphenol, 4-isopropylphenol] | – | – | – | IC50 [2]: 71.1 ± 7.73 nM
3 | CCc1ccc(O)cc1 [4-Ethylphenol, 4-ethylphenol] | – | – | 289 ± 45.9 | –
4 | CC(C)(c1ccc(O)cc1)c1ccc(O)cc1 [BPA, 2,2-bis(4-hydroxyphenyl)propane] | – | – | – | inhibition of the inverse agonist (deactivation) activity of 4-OHT [3]: antagonizes or inhibits the deactivation activity of 4-OHT in a dose-dependent manner; effect on constitutive basal activity of ERR-γ [3]: retained a high constitutive basal activity; IC50 [2]: 9.78 ± 0.87 nM; inhibition of the binding of [3H]BPA [2]: almost completely inhibits
5 | CC(c1ccc(O)cc1)c1ccc(O)cc1 [Bisphenol E, 2,2-bis(4-hydroxyphenyl)ethane] | almost completely inactive | Exclusively ERR-γ | 8.14 ± 0.83 | inhibition of the inverse agonist (deactivation) activity of 4-OHT [3]: inhibited the inverse agonist activity of 4-OHT; effect on constitutive basal activity of ERR-γ [3]: retain a high constitutive basal activity
6 | CCC(C)(c1ccc(O)cc1)c1ccc(O)cc1 [Bisphenol B, 2,2-bis(4-hydroxyphenyl)butane] | – | about 9.5 | 26.3 ± 2.65 | IC50 [1]: 246 ± 29.7 nM
7 | CC(c1ccccc1)(c1ccc(O)cc1)c1ccc(O)cc1 [Bisphenol AP, 4,4′-(1-phenylethylidene)bisphenol] | – | – | 123 ± 15.1 | IC50 [1]: 361 ± 22.6 nM; fold weaker binding affinity for ERR-γ than bisphenol E [2]: approximately 15 fold
8 | CCC(C)(C)c1ccc(O)cc1 [4-tert-Amylphenol, 4-tert-amylphenol] | almost completely inactive | Exclusively ERR-γ | 33.2 ± 2.85 | –
9 | CC(C)(C)c1ccc(O)cc1 [4-tert-Butylphenol, 4-tert-butylphenol] | almost completely inactive | – | – | –
10 | CC(C)(c1ccccc1)c1ccc(O)cc1 [4-α-Cumylphenol, 2-(4-hydroxyphenyl)-2-phenylpropane] | – | – | – | IC50 [1]: 4770 nM
11 | Oc1ccc(C(c2ccc(O)cc2)(C(F)(F)F)C(F)(F)F)cc1 [Bisphenol AF, 2,2-bis(4-hydroxyphenyl)hexafluoropropane] | – | – | 358 ± 30.5 | inhibition of the inverse agonist (deactivation) activity of 4-OHT [3]: inhibited the inverse agonist activity of 4-OHT; effect on constitutive basal activity of ERR-γ [3]: retain a high constitutive basal activity
12 | CC/C(=C(\c1ccc(O)cc1)c1ccc(OCCN(C)C)cc1)c1ccccc1 [4-OHT, 4-hydroxytamoxifen, reference compound] | – | – | – | deactivation of ERR-γ (inverse agonist activity) ([3]; 1.0 μM): approximately 0.4 fold
